Measured values taken from patent publication US20040204383A1, “Lysophosphatidic acid analogs and inhibition of neointima formation” (priority 2003, published 2004).
Entries after “also recorded” stand apart in the source; their conditions may differ.

How the values were obtained:
[1] = test system: rat carotid arteries; assay: Induction of neointima formation in rat carotid artery by topical application; type: in vivo
Source text: Briefly, the right carotid artery of anesthetized adult male Sprague-Dawley rats (250-300 g) was surgically exposed. The caudal origin of the common carotid artery was ligated using a vessel clip, followed by exposure and ligation of the internal carotid artery above the bifurcation. The external carotid artery was exposed, and a polyethylene catheter was inserted such that it never reached the common carotid artery, thereby avoiding mechanical injury to the vessel. The clip occluding the common carotid artery was temporarily released, and the vessel was rinsed with a retrograde injection of 500 μl physiological saline to remove residual blood. The vessel was again clipped, and 100 μl of treatment solution was injected. After 60 min of incubation, the cannula was withdrawn, the external carotid artery was ligated, and blood flow was restored. Animals were allowed to recover and were killed 7-56 d later by intracardiac perfusion of 10% buffered formaldehyde (pH 7.4). The common carotid artery from the […] to the bifurcation was dissected, embedded in paraffin, and processed for histological analysis. Five μm-thick sections were cut and stained with hematoxylin and eosin or Masson's trichrome stain. Intima to media ratios were quantified using an image analysis system (Scion Image CMS-800).

[2] = target: T1, PPARγ (Homo sapiens, UniProt P37231); assay: PPRE-Acox-Rluc reporter gene assay in CV-1 cells transfected with PPARγ; type: cell-based; conditions: for activation of the PPRE-Acox-Rluc reporter: 10 μM, 20 h, CV-1 cells (FIG. 6C)
T1 construct: expressed in transfected cells; host or cells: CV-1 cells, transient transfection with LipofectAMINE 2000
T1 sequence (P37231 1-505): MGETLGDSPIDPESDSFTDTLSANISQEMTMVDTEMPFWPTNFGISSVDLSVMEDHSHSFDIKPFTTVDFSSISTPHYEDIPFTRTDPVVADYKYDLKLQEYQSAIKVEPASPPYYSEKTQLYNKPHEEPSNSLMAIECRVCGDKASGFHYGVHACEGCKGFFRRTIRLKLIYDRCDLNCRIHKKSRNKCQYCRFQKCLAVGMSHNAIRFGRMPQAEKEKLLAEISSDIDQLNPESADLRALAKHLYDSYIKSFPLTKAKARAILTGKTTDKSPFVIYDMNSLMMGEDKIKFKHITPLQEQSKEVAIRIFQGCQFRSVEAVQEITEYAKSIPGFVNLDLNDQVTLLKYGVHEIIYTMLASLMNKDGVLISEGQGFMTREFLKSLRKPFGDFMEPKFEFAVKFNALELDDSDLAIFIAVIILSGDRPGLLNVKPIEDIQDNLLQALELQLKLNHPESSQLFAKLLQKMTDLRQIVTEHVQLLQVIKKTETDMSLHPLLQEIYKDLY
T1 sequence (P19793 1-462 partner): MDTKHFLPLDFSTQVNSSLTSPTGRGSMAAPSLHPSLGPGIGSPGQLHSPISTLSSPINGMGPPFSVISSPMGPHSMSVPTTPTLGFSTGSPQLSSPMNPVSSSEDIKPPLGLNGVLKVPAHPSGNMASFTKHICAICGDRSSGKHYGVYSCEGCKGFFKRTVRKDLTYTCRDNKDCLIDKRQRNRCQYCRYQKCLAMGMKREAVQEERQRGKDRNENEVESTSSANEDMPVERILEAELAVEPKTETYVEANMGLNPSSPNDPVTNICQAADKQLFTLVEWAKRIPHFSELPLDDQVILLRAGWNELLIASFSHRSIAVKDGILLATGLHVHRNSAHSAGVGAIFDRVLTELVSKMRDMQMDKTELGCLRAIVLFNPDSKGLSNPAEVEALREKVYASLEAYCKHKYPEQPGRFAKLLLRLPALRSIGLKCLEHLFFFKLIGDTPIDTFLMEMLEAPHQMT
Method: CV-1 cells were plated in 96-well plates (5×10^3 cells per well) in DME supplemented with 10% FBS. […] Twenty four hours after transfection, cells were treated with 1% FBS-supplemented OptiMEMI™ (Invitrogen) containing DMSO or test compound (10 μM) in DMSO for 20 h. Luciferase and β-galactosidase activities were measured with the Steady-Glo® Luciferase Assay System (Promega) and the Galacto-Light Plus™ System (Applied Biosystems), respectively. Samples were run in quadruplicate, and the mean±SE were calculated. Data are representative of at least three independent transfections. Student's t test was used for null hypothesis testing, and P<0.05 was considered significant.

[3] = test system: vascular smooth muscle cells; assay: Phenotypic modulation and dedifferentiation of cultured VSMCs (morphology, hCAD mRNA); type: cell-based, rat
Method: Expression of lysophosphatidic acid-specific G protein-coupled plasma membrane receptors in rat carotid arteries was examined by RT-PCR as described earlier by Wang et al. (2002). To quantify heavy caldesmon mRNA, quantitative PCR was performed applying the real-time SYBR Green PCR method using a Sequence Detection System Model 7700 (Applied Biosystems) instrument. Rat heavy caldesmon and GAPDH (reference control mRNA)-specific primers were designed with Primer Express Software (Applied Biosystems), and forward and reverse primers were as follows: 5′-[…]-3′ (SEQ ID NO:1) and 5′-[…]-3′ (SEQ ID NO:2) for heavy caldesmon; 5′-[…]-3′ (SEQ ID NO:3) and 5′-[…]-3′ (SEQ ID NO:4) for GAPDH. Amplification reaction was performed with SYBR Green PCR Master Mix (Applied Biosystems) following the manufacturer's protocol. mRNA abundance calculation was based on Ct values as described previously (Wang et al., 2002). The expression level of heavy caldesmon mRNA was normalized to GAPDH mRNA. Each PCR reaction was performed at least three times, and the result was expressed as mean±SEM. Statistical comparison of mRNA expression was evaluated by ANOVA, and P<0.05 was considered statistically significant.
It has been reported that unsaturated lysophosphatidic acid species induced phenotypic modulation of cultured vascular smooth muscle cells (VSMCs). Because the neointimal response and PPARγ display a similar selectivity for unsaturated lysophosphatidic acid, that activation of PPARγ plays a role in the phenotypic dedifferentiation is hypothesized herein. This hypothesis was tested in a culture system in which IGF-1 maintains the differentiated spindle shape of vascular smooth muscle cells as indicated by high levels of heavy caldesmon (hCAD) mRNA expression.

[4] = test system: CD36(−273)-Rluc reporter gene; assay: CD36(−273)-Rluc reporter gene (with PPRE) in CV-1 cells; type: cell-based; conditions: 10 μM, CV-1 cells (FIG. 7E)
Method: Therefore, the investigators compared the unique in vivo neointima-eliciting lysophosphatidic acid structure-activity relationship with that of PPARγ using an in vitro assay that utilizes an acyl-coenzyme A oxidase-luciferase (PPRE-Acox-Rluc) reporter gene construct containing a peroxisome proliferator-activated receptor response element. CV-1 cells were plated in 96-well plates (5×10^3 cells per well) in DME supplemented with 10% FBS. The next day, the cells were transiently transfected with 125 ng of pGL3-PPRE-acyl-CoA oxidase (Acox)-renilla luciferase), or 125 ng pGL3-CD36(−273), or pGL3-CD36(−261), 62.5 ng of pcDNAI-PPARγ, and 12.5 ng of pSV-β-galactosidase (Promega) using LipofectAMINE™ 2000 (Invitrogen). Twenty four hours after transfection, cells were treated with 1% FBS-supplemented OptiMEMI™ (Invitrogen) containing DMSO or test compound (10 μM) in DMSO for 20 h. Luciferase and β-galactosidase activities were measured with the Steady-Glo® Luciferase Assay System (Promega) and the Galacto-Light Plus™ System (Applied Biosystems), respectively. Samples were run in quadruplicate, and the mean±SE were calculated. Data are representative of at least three independent transfections. Student's t test was used for null hypothesis testing, and P<0.05 was considered significant.

[5] = 10 ng/ml, 2-wk period (FIG. 5B)
[6] = 10 μM, rat carotid artery model (FIG. 3C)

For “EGF: epidermal growth factor (NSDSECPLSHDGYCLHDGVCMYIEALDKYACNCVVGYIGERCQYRDLKWWELR; UniProt P01133 971-1023, looked up)”, the neointima formation ([1]; 50 ng/ml, 2-wk period (FIG. 5B)) was “failed to induce detectable neointima” and the neointima formation ([1]; 100 ng/ml (summary)) was “ineffective in inducing neointima formation”.
`CCCCCCCCCCCCCCCCCCOC[C@@H](O)COP(=O)(O)O` [octadecyl-GP] was tested, and the “activation of the PPRE-Acox-Rluc reporter” value [2] was “activated the reporter gene”.
With `CCCCCCCCCCCCC/C=C/[C@@H](O)[C@@H](N)COP(=O)(O)O` [S1P, sphingosine 1-phosphate] the “activation of the PPRE-Acox-Rluc reporter” value [2] was “inactive”.
In the case of VEGF, the neointima formation [1, 5] was “ineffective in inducing neointima formation; also recorded: failed to induce detectable neointima”.
2,3-cyclic phosphatidic acid [cPA 18:1] was tested, and the neointima formation [1, 6] was “did not elicit detectable neointima”, the neointima formation ([1]; 10 μM, rat carotid artery model (FIG. 3C), listed as cPA) was “inactive” and the “activation of the PPRE-Acox-Rluc reporter” value [2] was “inactive”.
With `O=C(Nc1ccccc1)c1cc([N+](=O)[O-])ccc1Cl` [GW9662] the “inhibition of neointima formation elicited by lysophosphatidic acid 20:4” value ([1]; 5 μM 30 min before and coapplied with 2.5 μM LPA 20:4) was “completely abolished neointima formation; also recorded: inhibited”, the “effect on vessels from animals treated with SOV-PC and saturated lysophosphatidic acid species” value ([1]; FIG. 6B) was “had no effect” and the “inhibition of AZ-PC-induced neointima formation” value ([1]; FIG. 6B) was “inhibited by GW9662”. The “inhibition of neointima formation in response to LPA 18:2” value ([1]; GW9662 pretreatment (FIG. 6B)) was “inhibited”, the “inhibition of neointima formation in response to minimally oxidized LDL” value ([1]; GW9662 pretreatment (FIG. 6B)) was “inhibited” and the “inhibition of Rosi-induced lesion formation” value ([1]; GW9662 pretreatment and coapplication (FIG. 6B)) was “fully blocked”. For the same compound, the “effect on LPA 20:4- and Rosi-induced flattened morphology of VSMCs” value ([3]; 200 nM GW9662) was “reversed this effect”, the “effect on hCAD mRNA expression” value ([3]; 200 nM pretreatment, quantitative RT-PCR (FIG. 8I)) was “caused a significant increase in hCAD mRNA expression” and the “effect on morphology of IGF-1- and LPA 20:0-treated VSMC cultures” value ([3]; 200 nM, 30 min pretreatment) was “did not affect the spindle-like morphology”. For the same compound, the “inhibition of lysophosphatidic acid 20:4-induced PPRE-Acox-Rluc reporter gene expression” value ([2]; 10 μM (FIG. 6D)) was “abolished”.
For `CCCCCCCCCCCCCCCCCC(=O)OC[C@H](COP(=O)([O-])OCC[N+](C)(C)C)OC(=O)CCCC=O` [SOV-PC, stearoyl-oxovaleryl phosphatidylcholine], the neointima formation ([1]; after 2 weeks (FIG. 6B)) was “failed to stimulate neointima formation”.
In the case of `CCCCCCCCCCCCCCCCOCC(COP(=O)([O-])OCC[N+](C)(C)C)OC(=O)CCCCCCCC(=O)O` (centres unmarked) [AZ-PC, 1-O-hexadecyl-2-azaleoyl-phosphatidylcholine], the neointima formation ([1]; after 2 weeks (FIG. 6B)) was “caused neointima formation”.
With LPA 18:1 the neointima formation ([1]; 10 μM, 2-wk period (FIG. 5B)) was “showed neointima formation”, the “extent of neointima development, concentration dependence” value ([1]; 2 wk after treatment (FIG. 4B)) was “concentration dependent up to 10 μM” and the “concentration at which neointima development reached statistical significance” value ([1]; P<0.01, FIG. 4B) was 5 µM.
PDGF was tested, and the neointima formation [1, 5] was “ineffective in inducing neointima formation; also recorded: failed to induce detectable neointima”.
`CCCCCCCCCCCCCCCC(=O)OC[C@@H](F)COP(=O)(O)O` [XY8, 1-palmitoyl-(2R)-fluorodeoxy-sn-glycero-3-phosphate] was tested, and the neointima formation ([1]; 10 μM, 2-wk period (FIG. 5B)) was “showed neointima formation”.
With dioctylglycerol pyrophosphate [DGPP] the “inhibition of lysophosphatidic acid 20:4-induced neointima formation” value ([1]; FIG. 6A) was “modest inhibition”.
With `CCCCCCCCC=CCCCCCCCCOCC(O)COP(=O)(O)O` (centres unmarked) [1AGP, 1-octadecenyl-glycerophosphate] the neointima formation [1, 6] was “highly effective” and the “stimulation of CD36(−273)-Rluc reporter gene” value [4] was “higher stimulation”.
For `CCCCCCCCCCCCCCCCOC[C@@H](O)COP(=O)(O)O` [hexadecyl-GP], the “activation of the PPRE-Acox-Rluc reporter” value [2] was “activated the reporter gene”.
With 3-O-octadecenyl-glycerophosphate [3AGP] the neointima formation [1, 6] was “modestly effective”.
For lysophosphatidic acid, the “effect of added albumin on compound-induced activation of the PPRE-Acox-Rluc reporter gene” value ([2]; albumin 0.04-4% wt/vol, concentration-dependent (FIG. 7G)) was “inhibited”, the “concentrations sufficient to cause significant activation of the reporter” value ([2]; dose-response (FIGS. 6E and F)) was “high nanomolar concentrations” and the “effect of added rat serum on compound-induced activation of the PPRE-Acox-Rluc reporter gene” value ([2]; rat serum 1-20% vol/vol, concentration-dependent (FIG. 7H)) was “inhibited”.
`CCCCCCCCCCCCCCCCCC(=O)OCC(O)COP(=O)(O)O` (centres unmarked) [LPA 18:0] was tested, and the neointima formation [1, 6] was “did not elicit detectable neointima”.
For `CCCCCCCCCCCCCCCC(=O)O[C@H](COP(=O)(O)O)C(F)F` [XY4, 1,1-difluorodeoxy-(2R)-palmitoyl-sn-glycero-3-phosphate], the neointima formation ([1]; 10 μM, 2-wk period (FIG. 5B)) was “showed neointima formation”.
